{"source": "patent US20050159333A1", "about": "“Methods of modulating smooth muscle contractility” (priority 2002, published 2005)", "key": {"[1]": {"system": "isolated male rat urinary bladder", "experiment": "contractile responses of isolated male rat urinary bladder to the PKC activator phorbol ester", "format": "cell-based"}, "[2]": {"target": "PKC, human form (Homo sapiens, UniProt P17252)", "details": "20 μM HA-1077; Davies et al. 2000; cited from earlier work"}, "[3]": {"target": "PKC from rat brain", "details": "cited from earlier work"}, "[4]": {"system": "isolated rabbit urinary bladder smooth muscle", "details": "Jezior et al. 2001, cited from earlier work"}, "[5]": {"system": "isolated rabbit aorta", "details": "Seto et al. 1991; cited from earlier work"}, "[6]": {"system": "isolated male rat urinary bladder", "experiment": "α,β-methylene ATP-evoked contractions of isolated male rat urinary bladder strips (organ bath)", "format": "cell-based", "details": "for attenuation of α,β-methylene ATP-evoked bladder contractions: 10 μM inhibitor, 45 min, 10 μM α,β-methylene ATP"}, "[7]": {"target": "protein kinase C-related protein kinase 2 (PRK2) (Homo sapiens, UniProt Q16513)", "sequence (Q16513 whole entry, species assumed)": "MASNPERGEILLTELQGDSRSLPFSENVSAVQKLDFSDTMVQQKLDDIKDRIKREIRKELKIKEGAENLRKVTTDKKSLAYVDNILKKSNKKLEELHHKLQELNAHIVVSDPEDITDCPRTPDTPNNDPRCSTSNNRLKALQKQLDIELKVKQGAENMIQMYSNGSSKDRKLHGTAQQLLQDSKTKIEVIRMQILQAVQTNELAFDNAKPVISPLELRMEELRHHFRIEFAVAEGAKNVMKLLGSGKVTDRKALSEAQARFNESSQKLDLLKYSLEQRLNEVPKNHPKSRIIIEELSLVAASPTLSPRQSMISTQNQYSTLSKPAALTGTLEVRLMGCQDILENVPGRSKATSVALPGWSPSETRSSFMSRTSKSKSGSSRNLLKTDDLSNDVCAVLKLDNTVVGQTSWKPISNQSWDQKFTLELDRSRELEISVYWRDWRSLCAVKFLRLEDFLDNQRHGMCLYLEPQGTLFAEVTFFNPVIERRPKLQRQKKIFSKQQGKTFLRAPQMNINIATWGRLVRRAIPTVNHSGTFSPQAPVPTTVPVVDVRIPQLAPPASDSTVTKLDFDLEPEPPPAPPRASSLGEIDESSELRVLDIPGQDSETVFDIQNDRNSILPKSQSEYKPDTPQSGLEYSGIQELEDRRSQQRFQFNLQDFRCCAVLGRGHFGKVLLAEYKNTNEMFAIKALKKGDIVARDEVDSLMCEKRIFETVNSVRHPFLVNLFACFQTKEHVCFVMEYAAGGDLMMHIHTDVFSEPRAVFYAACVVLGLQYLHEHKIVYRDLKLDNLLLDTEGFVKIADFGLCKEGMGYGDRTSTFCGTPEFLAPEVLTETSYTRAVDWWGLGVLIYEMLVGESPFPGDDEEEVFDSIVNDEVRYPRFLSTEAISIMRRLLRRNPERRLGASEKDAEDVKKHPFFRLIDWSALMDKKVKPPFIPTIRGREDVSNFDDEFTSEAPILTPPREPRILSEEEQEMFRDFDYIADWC", "details": "Davies et al. 2000; cited from earlier work"}, "[8]": {"system": "isolated male rat urinary bladder", "experiment": "baseline bladder tension of isolated male rat urinary bladder strips", "format": "cell-based", "details": "for decrease in baseline bladder tension from baseline / relaxation (decrease in baseline bladder tension): 10 μM, 45 min incubation; for effect on baseline bladder tension / bladder tone: absence of agonist-evoked contractile responses"}, "[9]": {"system": "isolated male rat urinary bladder", "experiment": "KCl-evoked contractions of isolated male rat urinary bladder strips (organ bath)", "format": "cell-based"}, "[10]": {"system": "isolated male rat urinary bladder", "experiment": "NKA-evoked contractions of isolated male rat urinary bladder strips (organ bath)", "format": "cell-based"}, "[11]": {"system": "isolated male rat urinary bladder", "experiment": "electrically-evoked contractions of isolated male rat urinary bladder strips (organ bath)", "format": "cell-based"}, "[12]": {"target": "PRK1 (protein kinase N) (Homo sapiens, UniProt Q16512)", "sequence (Q16512 whole entry, species assumed)": "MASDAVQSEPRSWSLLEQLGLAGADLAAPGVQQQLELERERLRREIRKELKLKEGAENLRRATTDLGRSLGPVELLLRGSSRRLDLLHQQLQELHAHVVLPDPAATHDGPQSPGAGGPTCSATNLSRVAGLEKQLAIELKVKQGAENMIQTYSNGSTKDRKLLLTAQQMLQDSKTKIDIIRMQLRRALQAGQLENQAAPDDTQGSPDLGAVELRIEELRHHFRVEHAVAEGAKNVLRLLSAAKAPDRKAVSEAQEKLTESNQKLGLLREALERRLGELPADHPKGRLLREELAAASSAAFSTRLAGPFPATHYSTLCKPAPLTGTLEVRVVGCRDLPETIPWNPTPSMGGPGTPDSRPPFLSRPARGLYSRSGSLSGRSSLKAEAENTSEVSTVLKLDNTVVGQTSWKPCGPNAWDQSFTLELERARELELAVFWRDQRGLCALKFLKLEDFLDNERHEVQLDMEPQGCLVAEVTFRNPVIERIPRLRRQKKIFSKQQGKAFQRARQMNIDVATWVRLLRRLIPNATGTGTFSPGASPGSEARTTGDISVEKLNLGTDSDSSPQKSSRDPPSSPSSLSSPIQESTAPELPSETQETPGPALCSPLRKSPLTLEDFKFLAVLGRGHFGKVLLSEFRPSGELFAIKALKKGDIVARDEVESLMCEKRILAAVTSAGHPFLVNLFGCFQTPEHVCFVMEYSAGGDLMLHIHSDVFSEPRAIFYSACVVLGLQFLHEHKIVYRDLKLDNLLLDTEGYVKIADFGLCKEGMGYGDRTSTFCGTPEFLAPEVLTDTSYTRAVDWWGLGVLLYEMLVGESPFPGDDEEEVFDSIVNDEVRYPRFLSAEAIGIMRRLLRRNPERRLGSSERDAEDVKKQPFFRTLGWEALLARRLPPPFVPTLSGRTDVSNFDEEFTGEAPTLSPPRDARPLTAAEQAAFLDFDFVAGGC", "details": "cited from earlier work"}, "[13]": {"target": "ROCK II", "details": "Ishizaki et al. 2000; cited from earlier work"}, "[14]": {"system": "other serine/threonine protein kinases", "details": "Davies et al. 2000; cited from earlier work"}, "[15]": {"system": "isolated rabbit pulmonary artery", "details": "Fu et al. 1998; cited from earlier work"}, "[16]": {"system": "isolated male rat urinary bladder", "experiment": "carbachol-evoked contractions of isolated male rat urinary bladder strips (organ bath)", "format": "cell-based"}, "[17]": {"details": "Y-27632 10 μM, unpublished observations"}, "[18]": {"details": "vehicle experiments, at 3×10^−7 M NKA"}, "[19]": {"details": "Rattus norvegicus, read-out: antagonist affinity (pKb) (converted)"}, "[20]": {"details": "all frequencies (2, 4, 8, 16 Hz), Y-27632 10 μM, atropine 1 μM, α,β-methylene ATP 10 μM"}}, "note": "Values joined by “and” are separate entries in the source; they are usually repeats but may differ in a detail not shown here. Identical values can stand only once. Counter-ions that a name gives are not always drawn. Like-named read-outs stand apart in the source and are kept apart here.", "data": [{"smiles": "CN(C)CCCn1cc(C2=C(c3c[nH]c4ccccc34)C(=O)NC2=O)c2ccccc21", "note": "[GF109203X]", "values": [{"measurement": "effect on contractile responses to the PKC activator phorbol ester", "setting": "[1]", "result": "inhibited"}]}, {"smiles": "O=S(=O)(c1cccc2cnccc12)N1CCCNCC1", "note": "[HA-1077, fasudil]", "values": [{"measurement": "effect on contractile responses to the PKC activator phorbol ester", "setting": "[1]; [17]", "result": "no inhibitory effects"}, {"measurement": "inhibitory effect on the human form of PKC", "setting": "[2]", "result": "no significant inhibitory effects"}, {"measurement": "Ki", "setting": "[3]", "result": 9.3, "unit": "µM"}, {"measurement": "effect on bethanechol-evoked contractions", "setting": "[4]", "result": "attenuate"}, {"measurement": "effect on PG-evoked contractions", "setting": "[5]", "result": "inhibits"}, {"measurement": "attenuation of α,β-methylene ATP-evoked bladder contractions", "setting": "[6]", "result": "22.1±5.7% and 22±6%"}, {"measurement": "effect on PRK2", "setting": "[7]", "result": "inhibited"}, {"measurement": "decrease in baseline bladder tension from baseline", "setting": "[8]", "result": "36.1±1.6", "unit": "%"}, {"measurement": "relaxation (decrease in baseline bladder tension)", "setting": "[8]", "result": "0.30 ± 0.01", "unit": "g"}, {"measurement": "effect on baseline bladder tension / bladder tone", "setting": "[8]", "result": "decreased bladder tone"}]}, {"smiles": "[Cl-].[K+]", "note": "[KCl, potassium chloride]", "values": [{"measurement": "maximal response to KCl", "setting": "[9]", "result": "8.7 ± 0.5", "unit": "g"}, {"measurement": "EC50", "setting": "[9]; read-out: KCl EC50 in the absence of antagonist", "result": "31000 ± 4300", "unit": "µM"}]}, {"smiles": "CSCC[C@H](NC(=O)[C@H](CC(C)C)NC(=O)CNC(=O)[C@@H](NC(=O)[C@H](Cc1ccccc1)NC(=O)[C@H](CO)NC(=O)[C@H](CC(=O)O)NC(=O)[C@@H](NC(=O)[C@H](CCCCN)NC(=O)[C@@H](N)Cc1c[nH]cn1)[C@@H](C)O)C(C)C)C(N)=O", "note": "[NKA, Neurokinin A]", "values": [{"measurement": "EC50", "setting": "[10]; read-out: NKA EC50 in the presence of Y-27632, 10 μM Y-27632", "result": 0.0324, "unit": "µM"}, {"measurement": "maximal response to NKA", "setting": "[10]; [18]", "result": "4.2 ± 0.4", "unit": "g"}, {"measurement": "maximal response to NKA as % of the response to 100 mM KCl", "setting": "[10]; [18]", "result": "136.2±24.8", "unit": "%"}]}, {"smiles": "NC1=N[C@H](O)[C@H]2[C@H]3O[C@]4(O)O[C@@H]([C@@H](O)[C@@]2(N1)[C@@H]4O)[C@]3(O)CO", "note": "[TTX, tetrodotoxin]", "values": [{"measurement": "effect on frequency-response curves to electrical stimulation", "setting": "[11]", "result": "abolished"}]}, {"smiles": "C[C@@H](N)[C@H]1CC[C@H](C(=O)Nc2ccncc2)CC1", "note": "[Y-27632, (+)-(R)-trans-4-(1-amino-ethyl)-N-(4-pyridyl) cyclohexanecarboxamide dihydrochloride monohydrate]", "values": [{"measurement": "effect on contractile responses to the PKC activator phorbol ester", "setting": "[1]; [17]", "result": "no effect"}, {"measurement": "effect on NKA-induced contractions", "setting": "[10]; 10 μM Y-27632, all concentrations of agonist", "result": "significantly attenuated"}, {"measurement": "attenuation of NKA-evoked bladder contractions", "setting": "[10]; 10 μM Y-27632, at 10^−6 M", "result": "69±13", "unit": "%"}, {"measurement": "Kb", "setting": "[10]; [19]", "result": 2.51, "unit": "µM"}, {"measurement": "inhibition at 10 µM", "setting": "[10]; Rattus norvegicus, read-out: inhibition of NKA-induced contractions", "result": "68.6 ± 12.7", "unit": "%"}, {"measurement": "effect on bethanechol-evoked contractions", "setting": "[4]; dihydrochloride monohydrate", "result": "attenuates"}, {"measurement": "Ki", "setting": "[12]", "result": 3.1, "unit": "µM"}, {"measurement": "Ki", "setting": "[13]", "result": 0.3, "unit": "µM"}, {"measurement": "effect on contractile response to KCl", "setting": "[9]; 10 μM Y-27632, KCl 10-100 mM, dihydrochloride monohydrate", "result": "no measureable effect"}, {"measurement": "attenuation of α,β-methylene ATP-evoked bladder contractions", "setting": "[6]; dihydrochloride monohydrate", "result": "30.0±7.2% and 30±7% and ~30%"}, {"measurement": "effect on PRK2", "setting": "[7]", "result": "inhibited"}, {"measurement": "effect on a large number of other serine/threonine protein kinases", "setting": "[14]", "result": "minimal effect"}, {"measurement": "effect on AA-evoked contractile responses", "setting": "[15]", "result": "attenuated"}, {"measurement": "effect on AUC of electrically-evoked bladder contractions", "setting": "[11]; [20]", "result": "significantly attenuated"}, {"measurement": "effect on amplitude of electrically-evoked bladder contractions", "setting": "[11]; [20]", "result": "significantly attenuated"}, {"measurement": "inhibition of carbachol-evoked contractions", "setting": "[16]; 10 μM Y-27632, 45 min pretreatment, at 3×10^−6 M carbachol, dihydrochloride monohydrate", "result": "58±11", "unit": "%"}, {"measurement": "effect on carbachol-evoked contractions", "setting": "[16]; 10 μM Y-27632, 10^−5-10^−4 carbachol", "result": "this inhibition was not significant"}, {"measurement": "effect on carbachol-evoked contractions", "setting": "[16]; 10 μM Y-27632, 10^−9-3×10^−6 M carbachol", "result": "significantly attenuated"}, {"measurement": "inhibition at 10 µM", "setting": "[16]; Rattus norvegicus, 10 μM Y-27632, 45 min pretreatment, at 3×10^−6 M carbachol", "result": "58.1 ± 10.5", "unit": "%"}, {"measurement": "Kb", "setting": "[16]; [19]", "result": 2.14, "unit": "µM"}, {"measurement": "degree of attenuation of G protein-coupled receptor contractile responses (carbachol and NKA)", "setting": "[16]; Y-27632 10 μM, carbachol and NKA responses together", "result": "approximately 50%"}, {"measurement": "effect on carbachol-evoked contractions", "setting": "[16]; pretreatment with 1 and 3 μM Y-27632", "result": "no effect"}, {"measurement": "decrease in baseline bladder tension from baseline", "setting": "[8]", "result": "47.0±2.5", "unit": "%"}, {"measurement": "relaxation (decrease in baseline bladder tension)", "setting": "[8]", "result": "0.40 ± 0.05", "unit": "g"}, {"measurement": "effect on baseline bladder tension / bladder tone", "setting": "[8]", "result": "decreased bladder tone"}]}, {"smiles": "C[N+](C)(C)CCOC(N)=O.[Cl-]", "note": "[carbachol, carbamylcholine chloride]", "values": [{"measurement": "EC50", "setting": "[16]; Rattus norvegicus, read-out: carbachol EC50 in the presence of Y-27632", "result": "1.03 ± 0.336", "unit": "µM"}, {"measurement": "Emax at 10 µM", "setting": "[16]; Rattus norvegicus, vehicle experiments, at 10^−5 M carbachol, read-out: maximal response to carbachol as % of the response to 100 mM KCl", "result": "105 ± 28.2", "unit": "%"}, {"measurement": "EC50", "setting": "[16]; Rattus norvegicus, vehicle experiments, read-out: carbachol EC50 in the absence of antagonist", "result": "0.183 ± 0.0689", "unit": "µM"}, {"measurement": "maximal response to carbachol", "setting": "[16]; vehicle experiments, at 10^−5 M carbachol", "result": "5.3 ± 0.9", "unit": "g"}]}, {"smiles": "Nc1ncnc2c1ncn2[C@@H]1O[C@H](COP(=O)(O)CP(=O)(O)OP(=O)(O)O)[C@@H](O)[C@H]1O", "note": "[α,β-methylene ATP]", "values": [{"measurement": "mean amplitude of contractile responses evoked by α,β-methylene ATP", "setting": "[6]", "result": "3.9 ± 0.5", "unit": "g"}]}]}
